Read-outs that look alike come from different tables or passages of the source.

The test system of assay [1] is Cabbage Looper (Trichoplusia ni) ("CL"), second instar larvae. Briefly: Bioassay on cabbage looper (CL), 128-well diet tray assay. In kind it is in vivo. The note with it: for pest or weed control at 50 µg/cm2: Trichoplusia ni. The procedure, abridged: (§1)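 Sealed trays, 25° C., 14:10 light:dark, 5–7 d. Per-well % mortality recorded, mean of eight wells reported.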
The test system of assay [2] is Beet Armyworm (Spodoptera exigua) ("BAW"), second instar larvae. Kind of assay: Bioassay on beet armyworm (BAW), 128-well diet tray assay. In kind it is in vivo. The conditions noted are these: for pest or weed control at 50 µg/cm2: Spodoptera exigua. Put shortly: as §1
[3] abbreviates: read-out: CL (Biological Results, rating).
The mark [4] stands for this setting: read-out: BAW (Biological Results, rating).

Consider `Cc1ccc(COCC(F)(F)F)c(N2C(=O)CS/C2=N\C(=O)Nc2ccc(-c3ncn(-c4ccc(OCC(F)(F)F)nc4)n3)cc2F)c1` [Compound J765, (Z)-1-(2-Fluoro-4-(1-(6-(2,2,2-trifluoroethoxy)pyridin-3-yl)-1H-1,2,4-triazol-3-yl)phenyl)-3-(3-(5-methyl-2-((2,2,2-trifluoroethoxy)methyl)phenyl)-4-oxothiazolidin-2-ylidene)urea], for which the pest or weed control at 50 µg/cm2 in assay [1] (read-out: CL rating) and in assay [2] (read-out: BAW rating) was 50 to 100% each time.
On to `COC(C)c1ccc(C)cc1N1C(=O)CS/C1=N\C(=O)Nc1ccc(-c2ncn(-c3ccc(OCC#N)cc3)n2)cc1F` (stereo not drawn) [Compound J340, (Z)-1-(4-(1-(4-(Cyanomethoxy)phenyl)-1H-1,2,4-triazol-3-yl)-2-fluorophenyl)-3-(3-(2-(1-methoxyethyl)-5-methylphenyl)-4-oxothiazolidin-2-ylidene)urea], for which the pest or weed control at 50 µg/cm2 in assay [1] (setting [3]) and in assay [2] (setting [4]) was 50 to 100% throughout.
On to `CC(C)c1cc(F)c(N(C)C)cc1N1C(=O)CS/C1=N\C(=O)Nc1ccc(-c2ncn(-c3ccc(SC(F)(F)F)cc3)n2)cc1` [Compound J389, (Z)-1-(3-(5-(Dimethylamino)-4-fluoro-2-isopropylphenyl)-4-oxothiazolidin-2-ylidene)-3-(4-(1-(4-((trifluoromethyl)thio)phenyl)-1H-1,2,4-triazol-3-yl)phenyl)urea], for which the pest or weed control at 50 µg/cm2 in assay [1] (read-out: CL rating) and in assay [2] (read-out: BAW rating) was 50 to 100% throughout.
For the compound `CCC(C)c1ccc(C)cc1N1C(=O)CS/C1=N\C(=O)Nc1ccc(-c2ncn(-c3ccc(C(F)(F)F)cc3)n2)cc1F` (stereo not drawn) [Compound J65, (Z)-1-(3-(2-(sec-Butyl)-5-methylphenyl)-4-oxothiazolidin-2-ylidene)-3-(2-fluoro-4-(1-(4-(trifluoromethyl)phenyl)-1H-1,2,4-triazol-3-yl)phenyl)urea], the pest or weed control at 50 µg/cm2 in assay [1] (setting [3]) and in assay [2] (setting [4]) was 50 to 100% in each case.
As for `CC(C)c1ccc(N(C)C)cc1N1C(=O)CS/C1=N\C(=O)Nc1ccc(-c2ncn(-c3ccc(OC(F)(F)F)cn3)n2)cc1Cl` [Compound J253, (Z)-1-(2-Chloro-4-(1-(5-(trifluoromethoxy)pyridin-2-yl)-1H-1,2,4-triazol-3-yl)phenyl)-3-(3-(5-(dimethylamino)-2-isopropylphenyl)-4-oxothiazolidin-2-ylidene)urea], the pest or weed control at 50 µg/cm2 in assay [1] (setting [3]) and in assay [2] (setting [4]) was 50 to 100% throughout.
Turning to `Cc1cc(COCC(F)(F)F)c(N2C(=O)CS/C2=N\C(=O)Nc2ccc(-c3ncn(-c4ccc(OC(F)(F)F)cc4)n3)cc2C)cc1C` [Compound J460], in assay [1] (Table ABC, species CL, C = not tested, D = no activity noticed), the CL rating entry is reported as “A (50-100)”. The BAW rating entry in assay [2] (Table ABC, species BAW, C = not tested, D = no activity noticed) is “A (50-100)”.
Turning to `CN(C)c1ccc(OCCC(F)(F)F)c(N2C(=O)CS/C2=N\C(=O)Nc2ccc(-c3ncn(-c4ccc(C(F)(F)F)cc4)n3)cc2F)c1` [Compound J184, (Z)-1-(3-(5-(Dimethylamino)-2-(3,3,3-trifluoropropoxy)phenyl)-4-oxothiazolidin-2-ylidene)-3-(2-fluoro-4-(1-(4-(trifluoromethyl)phenyl)-1H-1,2,4-triazol-3-yl)phenyl)urea], the pest or weed control at 50 µg/cm2 in assay [1] (setting [3]) and in assay [2] (setting [4]) was 50 to 100% in each case.
As to `Cc1ccc(COCC(F)(F)F)c(N2C(=O)CS/C2=N\C(=O)Nc2ccc(-c3cn(-c4ccc(C(F)(F)F)cn4)cn3)cc2C)c1` [Compound J511, (Z)-1-(3-(5-Methyl-2-((2,2,2-trifluoroethoxy)methyl)phenyl)-4-oxothiazolidin-2-ylidene)-3-(2-methyl-4-(1-(5-(trifluoromethyl)pyridin-2-yl)-1H-imidazol-4-yl)phenyl)urea], the pest or weed control at 50 µg/cm2 in assay [1] (read-out: CL rating) and in assay [2] (read-out: BAW rating) was 50 to 100% throughout.
Turning to `CCc1cc(-c2ncn(-c3ccc(OC(F)(F)F)cc3)n2)ccc1NC(=O)/N=C1\SCC(=O)N1c1cc(NC)ccc1C(C)C` [Compound J157, (Z)-1-(2-Ethyl-4-(1-(4-(trifluoromethoxy)phenyl)-1H-1,2,4-triazol-3-yl)phenyl)-3-(3-(2-isopropyl-5-(methylamino)phenyl)-4-oxothiazolidin-2-ylidene)urea], the pest or weed control at 50 µg/cm2 in assay [1] (setting [3]) and in assay [2] (setting [4]) was 50 to 100% throughout.
For the compound `Cc1ccc(C(C)C)c(N2C(=O)CS/C2=N\C(=O)Nc2ccc(-c3ncn(-c4ccc(OC(F)(F)F)cc4)n3)cc2C#N)c1` [Compound J227, (Z)-1-(2-cyano-4-(1-(4-(trifluoromethoxy)phenyl)-1H-1,2,4-triazol-3-yl)phenyl)-3-(3-(2-isopropyl-5-methylphenyl)-4-oxothiazolidin-2-ylidene)urea], the pest or weed control at 50 µg/cm2 in assay [1] (setting [3]) and in assay [2] (setting [4]) was 50 to 100% throughout.
With `COCc1ccc(C)cc1N1C(=O)CS/C1=N\C(=O)Nc1ccc(-c2nnc(-c3ccc(OC(F)(F)F)cc3)o2)cc1F` [Compound J609, (Z)-1-(2-Fluoro-4-(5-(4-(trifluoromethoxy)phenyl)-1,3,4-oxadiazol-2-yl)phenyl)-3-(3-(2-(methoxymethyl)-5-methylphenyl)-4-oxothiazolidin-2-ylidene)urea], the pest or weed control at 50 µg/cm2 in assay [1] (read-out: CL rating) and in assay [2] (read-out: BAW rating) was 50 to 100% each time.
For `CC(C)c1ccc(N(C)C)cc1N1C(=O)CS/C1=N\C(=O)Nc1ccc(-c2ncn(-c3ccc(C(F)(F)F)cn3)n2)cc1C(F)(F)F` [Compound J302, (Z)-1-(3-(5-(Dimethylamino)-2-isopropylphenyl)-4-oxothiazolidin-2-ylidene)-3-(2-(trifluoromethyl)-4-(1-(5-(trifluoromethyl)pyridin-2-yl)-1H-1,2,4-triazol-3-yl)phenyl)urea], the pest or weed control at 50 µg/cm2 in assay [1] (setting [3]) and in assay [2] (setting [4]) was 50 to 100% in each case.
In the case of `COC(C)c1ccc(C)cc1N1C(=O)CS/C1=N\C(=O)Nc1ccc(-c2ncn(-c3ccc(SC(F)(F)F)cc3)n2)cc1F` (stereo not drawn) [Compound J187, (Z)-1-(2-Fluoro-4-(1-(4-((trifluoromethyl)thio)phenyl)-1H-1,2,4-triazol-3-yl)phenyl)-3-(3-(2-(1-methoxyethyl)-5-methylphenyl)-4-oxothiazolidin-2-ylidene)urea], the pest or weed control at 50 µg/cm2 in assay [1] (setting [3]) and in assay [2] (setting [4]) was 50 to 100% each time.
Regarding `Cc1ccc(C(C)C)c(N2C(=O)CS/C2=N\C(=O)Nc2ccc(-c3ncn(-c4ccc(C(F)(F)F)cn4)n3)cc2C(F)(F)F)c1` [Compound J301, (Z)-1-(3-(2-Isopropyl-5-methylphenyl)-4-oxothiazolidin-2-ylidene)-3-(2-(trifluoromethyl)-4-(1-(5-(trifluoromethyl)pyridin-2-yl)-1H-1,2,4-triazol-3-yl)phenyl)urea], the pest or weed control at 50 µg/cm2 in assay [1] (setting [3]) and in assay [2] (setting [4]) was 50 to 100% in each case.
For the compound `CCOCc1ccc(C)cc1N1C(=O)CS/C1=N\C(=O)Nc1ccc(-c2ncn(-c3ccc(SC(F)(F)F)cc3)n2)cc1F` [Compound J195, (Z)-1-(3-(2-(Ethoxymethyl)-5-methylphenyl)-4-oxothiazolidin-2-ylidene)-3-(2-fluoro-4-(1-(4-((trifluoromethyl)thio)phenyl)-1H-1,2,4-triazol-3-yl)phenyl)urea], the pest or weed control at 50 µg/cm2 in assay [1] (setting [3]) and in assay [2] (setting [4]) was 50 to 100% each time.

The values above are taken from US20230077362A1 (CORTEVA AGRISCIENCE LLC, priority 2019, published 2023).
